From ChEMBL document CHEMBL1932955, “Discovery of potent small molecule inhibitors of DYRK1A by structure-based virtual screening and bioassay” (Bioorg Med Chem Lett, 2012)

Target: Dual specificity tyrosine-phosphorylation-regulated kinase 1A (Homo sapiens, UniProt Q13627)
Assay: Inhibition of GST-tagged human DYRK1A using dephosphorylated MBP as substrate after 10 mins by Kinase-Glo plus luminescent kinase assay

For `O=C(O[C@@H]1Cc2c(O)cc(O)cc2O[C@@H]1c1cc(O)c(O)c(O)c1)c1cc(O)c(O)c(O)c1` [EPIGALOCATECHIN GALLATE], the IC50 was 13.4 µM.
